Test results taken from patent publication US20050176822A1, “Phenylacetonitrile derivatives and hair tonics and external preparations for skin containing the derivatives” (priority 2002, published 2005).

Key:
[1] = tested on: immortalized human outer root sheath cell; assay: Growth-stimulative activity test on immortalized human outer root sheath cell ([3H]-thymidine uptake); format: cell-based; settings: negative control (KBM+dH2O) = 100%, 2 days incubation
Procedure: Growth-Stimulative Activity Test on Immortalized Human Outer Root Sheath Cell (I) Immortalized Human Outer Root Sheath Cell Keratinocyte-SFM medium (Gibco BRL), to which a supplement attached with the medium was added, was used for culture on a dish which surface was coated with collagen. The cell was cultured until it became semiconfluent and then peeled off with 0.05% trypsin/PBS(−) and subcultured. 30-40th stage culture cells were used for study on growth. (2) Sample Preparation Each tested compound described below is dissolved with distilled water at the concentration of 10 mM and sterilized through Millipore filter. This aqueous solution was diluted with KBM at a predetermined concentration and added to the cell as a sample. The immortalized human outer root sheath cell was inoculated into a microplate (Iwaki, 24 wells) (20000 cells/well) with a growth medium KGM (Sanko Junyaku Co., Ltd., CC-3111) and incubated at 37° C. for 1 day. After each well was washed once with basal medium KBM (Sanko Junyaku Co., Ltd., CC-3101), the medium was exchanged with KBM containing each sample, and then incubated further for 2 days. [^3H]-Thymidine (Amersham Pharmacia Biotech K.K., TRK758, the final concentration: 20 μCi/ml) was added thereto and incubated at 37° C. for 3 hours. The cell was peeled off with 0.25% trypsin/PBS(−) and collected on a glass filter (Watmann, GLC). After [^3H]-thymidine that is not taken into the cell was removed by washing with distilled water, the filter was air-dried and then the radioactivity was measured by a liquid scintillation counter. […], using the uptake quantity of radioactivity in the sample-added group when that in the negative control medium (KBM+dH2O) was regarded as 100%, the immortalized human outer root sheath cell growth activity was evaluated.

[2] = tested on: artificial bulbus pili site (human dermal papilla cells + outer root sheath cells); assay: Growth-stimulative activity test on artificial human bulbus pili cell (Alamar Blue relative respiration level); format: cell-based; settings: for Judgment (cell growth-stimulative effect by relative respiration level): final concentration 10^−12 M or 10^−14 M (not said which), 2 days incubation, negative control 0.1% ethanol = 100%; for cell growth-stimulative effect on artificial bulbus pili site, in words: final concentration 10^−12 M or 10^−14 M, summary of Table 2
Procedure: Growth-Stimulative Activity Test on Artificial Human Bulbus Pili Cell
(1) Preparation of First Stage Incubated Outer Root Sheath Cell
A bulbus pili site of a hair follicle isolated from a human scalp obtained by a plastic surgery was excised and then enzymatically treated in Keratinocyte-SFM medium (GibcoBRL:11965-011) supplemented with 1000 unit/ml dispase+0.2% collagenase at 37° C. for 30 minutes. After unnecessary hair follicle mesenchymal tissue such as connective tissue root sheath was removed therefrom using the tip of a syringe needle (27G), the residue was placed in the incubating space of an incubator coated with collagen and explant culture was performed in Keratinocyte-SFM medium supplemented with an antibacterial agent. After incubation for about 1 week, the medium was exchanged upon ensuring the growth of the cells. Cells grown to be subconfluent were treated with PBS(−)+0.05% trypsin at 37° C. for 3 minutes and the reaction was stopped with an equivalent amount or more of PBS(−)+0.1% trypsin inhibitor (Sigma). The cells were collected by centrifugal separation (1200 rpm×5 min) and suspended again in PBS(−). The cells were collected by centrifugal separation (1200 rpm×5 min), thereby washing the cells. Washed cells were stored while being frozen in a liquid nitrogen using Cellbanker II (DIA-IATRON: ZCB-201(100)), thereby obtaining the first stage incubated outer root sheath cells.
(2) Preparation of First Stage Incubated Dermal Papilla Cell
From a bulbus pili site obtained by excising a hair follicle isolated from a human scalp obtained by a plastic surgery, using the tip of a syringe needle (27G), a dermal papilla site was isolated under a stereoscopic microscope and placed in the incubating space of an incubator coated with collagen. Then, explant culture was performed in 10% FBS-added DMEM medium (GibcoBRL: 11965-092) supplemented with an antibacterial agent. After incubation for about 2 week, the medium was exchanged upon ensuring the growth of the cells. Cells grown to be subconfluent were treated with PBS(−)+0.05% trypsin at 37° C. for 3 minutes and the reaction was stopped with an equivalent amount or more of PBS(−)+0.1% trypsin inhibitor (Sigma). The cells were collected by centrifugal separation (1200 rpm×5 min) and suspended again in PBS(−). The cells were collected by centrifugal separation (1200 rpm×5 min), thereby washing the cells. Washed cells were stored while being frozen in a liquid nitrogen using Cellbanker II (DIA-IATRON: ZCB-201(100)), thereby obtaining the first stage incubated dermal papilla cells.
(3) Manufacture of the Artificial Bulbus Pili Site
(§1) The first stage incubated dermal papilla cell obtained above was subcultured three times (37° C., 5% CO2) in a 10% FBS-supplemented DMEM medium (GibcoBRL: 11965-092) in a 75 cm^2 incubation flask coated with Type I collagen, and then stored while being frozen in a liquid nitrogen using Cellbanker II (DIA-IATRON: ZCB-201(100)) (DPc).
as §1, with “Also, the” for “The”, “outer root sheath” for “dermal papilla”, “Keratinocyte-SFM” for “10% FBS-supplemented DMEM”, “11965-011)” for “11965-092)”, “(ORSc).” for “(DPc).”
The DPc and ORSc stored as frozen were thawed, washed with an ice-cooled Keratinocyte-SFM medium, dispersed in Keratinocyte-SFM(+) medium (which is Keratinocyte-SFM medium supplemented with 5 ng/mL epidermal growth factor and 5 μl/mL bovine pituitary glanusi extract), and subjected to an accurate cell density measurement using a hemocytometer. Then, each cell density was adjusted at 5×10^4 cells/ml, and the cell dispersions in equal volumes were combined under cooling with ice. 80 μl aliquots of the combined cell suspending Keratinocyte-SFM(+) medium were inoculated into individual wells of Sumilon celltight spheroid 96U plate (Sumitomo Bakelit co.,), and incubated for 2 days (37° C., 5% CO2). […]

COc1ccc(C(C#N)(CCCN(C)CCC(C)C)C(C)C)cc1OC.Cl (stereo not drawn) [Example 21, 2-(3′,4′-dimethoxyphenyl)-2-isopropyl-5-[N-methyl-N-(3-methylbutyl)amino]-pentanenitrile hydrochloride]
[^3H]-thymidine uptake quantity ([1]; concentration 10^−9 M): 151%
[^3H]-thymidine uptake quantity ([1]; concentration 10^−10 M): 143%
[^3H]-thymidine uptake quantity ([1]; concentration 10^−11 M): 160%
[^3H]-thymidine uptake quantity ([1]; concentration 10^−12 M): 114%
[^3H]-thymidine uptake quantity ([1]; concentration 10^−13 M): 118%

COc1ccc(C(C#N)(CCCN(CC(C)C)CC(C)C)C(C)C)cc1OC (stereo not drawn) [Example 15]
Judgment (cell growth-stimulative effect by relative respiration level) [2]: + (Effect is recognized (105% or more, and less then 110%))

COc1ccc(C(C#N)(CCCN(C)C(C)C)C(C)C)cc1OC (stereo not drawn) [Example 6]
Judgment (cell growth-stimulative effect by relative respiration level) [2]: + (Effect is recognized (105% or more, and less then 110%))

CNCCC[C@](C#N)(c1ccc(OC)c(OC)c1)C(C)C.Cl [Example 22, (R)-2-(3′,4′-dimethoxyphenyl)-2-isopropyl-5-methylaminopentanenitrile hydrochloride]
[^3H]-thymidine uptake quantity ([1]; concentration 10^−9 M): 105%
[^3H]-thymidine uptake quantity ([1]; concentration 10^−10 M): 98%
[^3H]-thymidine uptake quantity ([1]; concentration 10^−11 M): 111%
[^3H]-thymidine uptake quantity ([1]; concentration 10^−12 M): 135%
[^3H]-thymidine uptake quantity ([1]; concentration 10^−13 M): 153%
[^3H]-thymidine uptake quantity ([1]; concentration 10^−14 M): 160%

COc1ccc(C(C#N)(CCCn2ccnc2)C(C)C)cc1OC (stereo not drawn) [Example 26, 2-(3′,4′-dimethoxyphenyl)-5-imidazole-1″-yl-2-isopropylpentanenitrile]
Judgment (cell growth-stimulative effect by relative respiration level) [2]: + (Effect is recognized (105% or more, and less then 110%))

COc1ccc(C(C#N)(CCCN(C)CC(C)C)C(C)C)cc1OC (stereo not drawn) [Example 8]
Judgment (cell growth-stimulative effect by relative respiration level) [2]: ++ (Strong effect is recognized (110% or more, and less than 115%))
cell growth-stimulative effect on artificial bulbus pili site, in words [2]: strong effects

COc1ccc(C(C#N)(CCCn2cccc2)C(C)C)cc1OC (stereo not drawn) [Example 25, 2-(3′,4′-dimethoxyphenyl)-2-isopropyl-5-pyrrole-1″-yl-pentanenitrile]
Judgment (cell growth-stimulative effect by relative respiration level) [2]: ++ (Strong effect is recognized (110% or more, and less than 115%))
cell growth-stimulative effect on artificial bulbus pili site, in words [2]: strong effects

COc1ccc(C(C#N)(CCCN2CCOCC2)C(C)C)cc1OC (stereo not drawn) [Example 24, 2-(3′,4′-dimethoxyphenyl)-2-isopropyl-5-morpholine-4″-yl-pentanenitrile]
Judgment (cell growth-stimulative effect by relative respiration level) [2]: ± (Weak effect is recognized (102% or more, and less then 105%))

COc1ccc(C(C#N)(CCCn2cccn2)C(C)C)cc1OC (stereo not drawn) [Example 27, 2-(3′,4′-dimethoxyphenyl)-2-isopropyl-5-pyrazole-1″-yl-pentanenitrile]
Judgment (cell growth-stimulative effect by relative respiration level) [2]: + (Effect is recognized (105% or more, and less then 110%))

CCCCCN(C)CCCC(C#N)(c1ccc(OC)c(OC)c1)C(C)C (stereo not drawn) [Example 28, 2-(3′,4′-dimethoxyphenyl)-2-isopropyl-5-[N-methyl-N-(n-pentyl)amino]pentane nitrile]
Judgment (cell growth-stimulative effect by relative respiration level) [2]: ++ (Strong effect is recognized (110% or more, and less than 115%))
cell growth-stimulative effect on artificial bulbus pili site, in words [2]: strong effects

CCCN(C)CCCC(C#N)(c1ccc(OC)c(OC)c1)C(C)C (stereo not drawn) [Example 5]
Judgment (cell growth-stimulative effect by relative respiration level) [2]: + (Effect is recognized (105% or more, and less then 110%))

COc1ccc([C@@](C#N)(CCCN(C)CCC(C)C)C(C)C)cc1OC.Cl [Example 23, (R)-2-(3′,4′-dimethoxyphenyl)-2-isopropyl-5-[N-methyl-N-(3-methylbutyl)amino]-pentanenitrile hydrochloride]
[^3H]-thymidine uptake quantity ([1]; concentration 10^−9 M): 115%
[^3H]-thymidine uptake quantity ([1]; concentration 10^−10 M): 106%
[^3H]-thymidine uptake quantity ([1]; concentration 10^−11 M): 107%
[^3H]-thymidine uptake quantity ([1]; concentration 10^−12 M): 117%
[^3H]-thymidine uptake quantity ([1]; concentration 10^−13 M): 114%
[^3H]-thymidine uptake quantity ([1]; concentration 10^−14 M): 125%

CCN(C)CCCC(C#N)(c1ccc(OC)c(OC)c1)C(C)C (stereo not drawn) [Example 4]
Judgment (cell growth-stimulative effect by relative respiration level) [2]: +++ (Very strong effect is recognized (115% or more))
cell growth-stimulative effect on artificial bulbus pili site, in words [2]: very strong effects

CCCN(CCC)CCCC(C#N)(c1ccc(OC)c(OC)c1)C(C)C (stereo not drawn) [Example 12]
Judgment (cell growth-stimulative effect by relative respiration level) [2]: + (Effect is recognized (105% or more, and less then 110%))

CCCCN(C)CCCC(C#N)(c1ccc(OC)c(OC)c1)C(C)C (stereo not drawn) [Example 7]
Judgment (cell growth-stimulative effect by relative respiration level) [2]: + (Effect is recognized (105% or more, and less then 110%))
